The numbers were not newly measured in article PMC7191262 (Molecular pharmaceutics, 2020), which cites them from elsewhere.

Read-outs that look alike come from different tables or passages of the source. *1 amine or outer side, *2 acyl side, *3 side chain or, on linkers, in order; H or OH if unused. Where a SMILES comes first, the peptide text is derived from it. Bridges are numbered along the chain shown (N, C = ends). [ ]: non-standard residue; d: D form. The star is where a group is joined. X1 = CN(C)c1ccc2c(c1)Oc1cc(N(C)C)ccc1C2=C1C=CC(=NC(=S)NC[C@](C)(O)C[C@H](N[*:1])C(=O)[*:2])C=C1C(=O)O; Trp(2-yl) = O=C([C@H](Cc1c([*:3])[nH]c2ccccc12)N[*:1])[*:2]; Dolaproine = CO[C@@H]([C@@H]1CCCN1)[C@@H](C)C(=O)O; Dil = CC[C@H](C)[C@H](NC)[C@@H](CC(=O)O)OC; cisHyp = O=C(O)[C@@H]1C[C@H](O)CN1; X2 = C[C@@H](N*)[C@@H](O)c1ccccc1; NMeV = CN[C@H](C(=O)O)C(C)C

For data set [1] the following is noted: cargo previously delivered by pHLIP.
For data set [2] the following is noted: pHLIP with no cargo; ref [33], [36], [39].
The mark [3] stands for this setting: ref Moshnikova et al., 2013 (Ref [17]).

As for `CC[C@H](C)[C@@H]([C@@H](CC(=O)N1CCC[C@H]1[C@H](OC)[C@@H](C)C(=O)N[C@@H](Cc1ccccc1)C(=O)O)OC)N(C)C(=O)[C@@H](NC(=O)[C@@H](NC)C(C)C)C(C)C` [Monomethyl Auristatin F] (H-[NMeV]V[Dil][Dolaproine]F-OH), the LogP/LogD in data set [1] (ref Burns et al., 2017 (Ref [20])) is 0.7.

Take `C[C@@H]1NC(=O)[C@H](C[C@@](C)(O)CNC(=S)N=C2C=CC(=C3c4ccc(N(C)C)cc4Oc4cc(N(C)C)ccc43)C(C(=O)O)=C2)NC(=O)[C@@H]2Cc3c([nH]c4ccccc34)SC[C@H](NC(=O)[C@@H]([C@H](C)O)NC1=O)C(=O)N1C[C@@H](O)C[C@H]1C(=O)N[C@@H](C)C(=O)N2` [Phalloidin-TRITC] (cyclo(A[dT]C[cisHyp]A[Trp(2-yl)][X1]); thioether 3-6): the LogP/LogD in data set [1] (ref Reshetnyak et al., 2006 (Ref [24])) is −0.05.

In the case of Amanitin [Amanitin (SPDP linker)], the LogP/LogD in data set [1] (setting [3]) is −0.2.

Regarding “GGEQNPIYWARYADWLFTTPLLLLDLALLVDADEGTC(NPys)G [pHLIP]”, the “characteristic time for insertion” value in data set [2] is ~ 40 seconds.

Regarding Amanitin [Amanitin (Lc-SMPT linker)], the LogP/LogD in data set [1] (setting [3]) is 0.2.

On to `CC[C@H](C)[C@@H]([C@@H](CC(=O)N1CCC[C@H]1[C@H](OC)[C@@H](C)C(=O)N[C@H](C)[C@@H](O)c1ccccc1)OC)N(C)C(=O)[C@@H](NC(=O)[C@@H](NC)C(C)C)C(C)C` [Monomethyl Auristatin E] (H-[NMeV]V[Dil][Dolaproine]-X2), for which, in data set [1] (ref Burns et al., 2015 (Ref [21])), the LogP/LogD is on record as 2.2.
